In patent US9133160B2, “Substituted benzimidazole and imidazopyridine compounds useful as CYP17 modulators” (Bristol-Meyers Squibb Company, priority 2010, dated 2015):

Key:
Human CYP17 = Human CYP17 (Homo sapiens (Human), UniProt P05093); assay: CYP17 Total SPA Assay; type: biochemical; conditions: microsomes from HEK2 cells stably transfected with CYP17; 3H-Pregnenolone 1 uM, NADPH 2 mM; read-out: Human CYP17 Inhibition SPA IC50
Protocol: CYP17 Total SPA Assay The assays were performed in U-bottom 384-well optiplates. […] The reaction was initiated by the combination of the microsomes and substrates in wells containing compound. The reaction was incubated at room temperature for 45 minutes and terminated by adding 7.5 μl of 0.2N HCl to each well. […] The plate was sealed and incubated overnight with shaking at 4° C. The beads were allowed to settle in the plate for 1 hour and the plate read on a TOPCOUNT® (Perkin-Elmer) plate reader. […] The final concentration of reagents in the assays are NADPH, 2 mM; 3H-Pregnenolone, 1 uM; microsomes, 1.25 ug/ml; […] Dose response curves were generated to determine the concentration required inhibiting 50% of enzyme activity (IC50). Compounds were dissolved at 10 mM in dimethylsulfoxide (DMSO) and evaluated at eleven concentrations, each in duplicate. IC50 values were derived by non-linear regression analysis. Table 3 below lists the IC50 values for the following examples of this invention measured in the Total CYP17 SPA Assay hereinabove.

testosterone levels = assay: 1-Day Cyno PK/PD Study (plasma testosterone); type: in vivo; conditions: cynomolgus monkeys, single oral dose 2 mg/kg in 80% PEG-400/water, 24 hour period
Protocol: Example 31 was formulated in 80% PEG-400/water at a volume of 1 mL/kg of monkey and administered orally at 2 mg/kg. The formulation was then dosed orally at time=0 hours and blood samples were taken over a 24 hour period to monitor for drug exposure and testosterone levels. (♦) Example 31 (nM); (▴) testosterone (ng/dL).
1-Day Cyno PK/PD Study Protocol
Animals: All procedures involving animals and their care were conducted in conformity with the guidelines that are in compliance with the Bristol-Myers Squibb Institutional Animal Care and Use Committee. Fully mature male cynomolgus monkeys (>4 yrs of age; 5-6 kg) were from an in-house colony. All the monkeys used had chronically implanted femoral vein access ports. For oral studies, all animals were fasted overnight prior to dosing and were fed 4 hr after dosing. […]
Sampling: Blood samples were collected from the femoral port, at 15, 30, and 45 min, and 1, 2, 4, 6, 8, 12, 24, 30, and 48 hr after oral administration. […] The plasma fraction was immediately separated by centrifugation (14,000 rpm, 10 min, 4° C.), frozen on dry ice, and stored at −20° C. until the samples were analyzed.
Analysis of Tested Compound: Plasma samples were thawed and treated with two volumes of acetonitrile containing internal standard. After centrifugation to remove precipitated proteins, an aliquot of supernatant was analyzed by LC/MS/MS. […]

Human CYP17, sequence (P05093 whole entry): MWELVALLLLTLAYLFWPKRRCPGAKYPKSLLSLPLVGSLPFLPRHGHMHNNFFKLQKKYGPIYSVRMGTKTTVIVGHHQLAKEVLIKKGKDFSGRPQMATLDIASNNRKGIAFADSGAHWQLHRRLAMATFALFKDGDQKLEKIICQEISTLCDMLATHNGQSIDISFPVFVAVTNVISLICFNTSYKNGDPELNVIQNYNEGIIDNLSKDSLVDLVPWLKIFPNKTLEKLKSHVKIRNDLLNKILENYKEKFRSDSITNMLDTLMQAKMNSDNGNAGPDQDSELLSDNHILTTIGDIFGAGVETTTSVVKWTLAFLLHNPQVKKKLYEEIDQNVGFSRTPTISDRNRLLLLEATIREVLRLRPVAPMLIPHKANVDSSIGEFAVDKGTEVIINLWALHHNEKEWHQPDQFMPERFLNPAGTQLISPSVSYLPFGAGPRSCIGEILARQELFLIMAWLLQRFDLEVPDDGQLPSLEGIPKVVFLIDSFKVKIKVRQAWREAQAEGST

SMILES	IC50 (Human CYP17)	testosterone levels (testosterone levels)
Cc1ccncc1-c1cccc2c1ncn2-c1ccccn1 [Example 2, 4-(4-methylpyridin-3-yl)-1-(pyridin-2-yl)-1H-benzo[d]imidazole]	5.8 nM	–
Cc1ccncc1-c1cccc2c1ncn2-c1cnccn1 [Example 4, 4-(4-methylpyridin-3-yl)-1-(pyrazin-2-yl)-1H-benzo[d]imidazole]	37 nM	–
Cc1ccncc1-c1cccc2c1ncn2-c1cccnn1 [Example 6, 4-(4-methylpyridin-3-yl)-1-(pyridazin-3-yl)-1H-benzo[d]imidazole]	250 nM	–
Cc1ccncc1-c1cccc2c1ncn2-c1cccc(C(F)(F)F)n1 [Example 9, 4-(4-methylpyridin-3-yl)-1-(6-(trifluoromethyl)pyridin-2-yl)-1H-benzo[d]imidazole]	40 nM	–
Cc1ccncc1-c1cccc2c1ncn2-c1cccc(F)n1 [Example 14, 1-(6-fluoropyridin-2-yl)-4-(4-methylpyridin-3-yl)-1H-benzo[d]imidazole]	11 nM	–
Cc1ccncc1-c1cccc2c1ncn2-c1ncc(F)cc1F [Example 15, 1-(3,5-difluoropyridin-2-yl)-4-(4-methylpyridin-3-yl)-1H-benzo[d]imidazole]	758 nM	–
Cc1ccncc1-c1cccc2c1ncn2-c1ccncn1 [Example 29, 4-(4-methylpyridin-3-yl)-1-(pyrimidin-4-yl)-1H-benzo[d]imidazole]	656 nM	–
Cc1ccncc1-c1cccc2c1ncn2-c1ccncc1 [Example 30, 4-(4-methylpyridin-3-yl)-1-(pyridin-4-yl)-1H-benzo[d]imidazole]	405 nM	–
Cc1ccncc1-c1cccc2c1ncn2CC(F)(F)F [Example 31, 4-(4-Methylpyridin-3-yl)-1-(2,2,2-trifluoroethyl)-1H-benzo[d]imidazole]	12 nM	~15 ng/dL
Cc1ccncc1-c1cccc2c1ncn2CC#N [Example 35, 2-(4-(4-Methylpyridin-3-yl)-1H-benzo[d]imidazol-1-yl)acetonitrile]	330 nM	–
Cc1ccncc1-c1cccc2c1ncn2C1CC1 [Example 37, 1-Cyclopropyl-4-(4-methylpyridin-3-yl)-1H-benzo[d]imidazole]	396 nM	–
FC(F)(F)Cn1cnc2c(-c3cnccc3Cl)cccc21 [Example 39, 4-(4-Chloropyridin-3-yl)-1-(2,2,2-trifluoroethyl)-1H-benzo[d]imidazole]	361 nM	–
Nc1ncncc1-c1cccc2c1ncn2CC(F)(F)F [Example 44, 5-(1-(2,2,2-Trifluoroethyl)-1H-benzo[d]imidazol-4-yl)pyrimidin-4-amine]	674 nM	–
CCOc1ncncc1-c1cccc2c1ncn2CC(F)(F)F [Example 45, 4-(4-Ethoxypyrimidin-5-yl)-1-(2,2,2-trifluoroethyl)-1H-benzo[d]imidazole]	135 nM	–
Nc1ncncc1-c1cccc2c1ncn2-c1ccc(F)cc1F [Example 46, 5-(1-(2,4-Difluorophenyl)-1H-benzo[d]imidazol-4-yl)pyrimidin-4-amine]	797 nM	–
